The record followed here is ChEMBL document CHEMBL5360534, “Synthetic α-glucosidase inhibitors as promising anti-diabetic agents: Recent developments and future challenges” (Eur J Med Chem, 2023).

The target of test [1] is T1, Alpha-glucosidase (Saccharomyces cerevisiae S288c, UniProt P53341+P38158+P07265). Nature of the test: Inhibition of Saccharomyces cerevisiae alpha-glucosidase using p-nitrophenyl-alpha-D-glucopyranoside as substrate preincubated for 5 mins followed by substrate addition and measured after 5 mins by spectrophotometric analysis. Type of test: protein assay.
Test [2] is described as follows: Inhibition of alpha-glucosidase (unknown origin) using pNPG as substrate by spectrophotometric analysis. Further details: species or system Homo sapiens.
The nature of test [3]: Inhibition of alpha-glucosidase (unknown origin) using pNPG as substrate assessed as inhibition constant by spectrophotometric analysis. More on the design: species or system Homo sapiens.
The target of test [4] is T1, Alpha-glucosidase. In words: Inhibition of Saccharomyces cerevisiae alpha-glucosidase using p-nitrophenyl-alpha-D-glucopyranoside as substrate preincubated for 10 mins followed by substrate addition and measured by spectrophotometric analysis. It is filed as protein assay.
Test [5] has as its target T1, Alpha-glucosidase. In words: Inhibition of Saccharomyces cerevisiae alpha-glucosidase using p-nitrophenyl-alpha-D-glucopyranoside as substrate assessed as inhibition constant preincubated for 10 mins followed by substrate addition and measured by spectrophotometric analysis. It is filed as protein assay.
Test [6] can be described thus: Inhibition of alpha-glucosidase (unknown origin) using p-nitrophenyl-alpha-D-glucopyranoside as substrate preincubated for 20 mins followed by substrate addition and measured after 30 mins by UV-visible spectrophotometric analysis. More on the design: species or system Homo sapiens.
Another test is filed under the species Homo sapiens. In words: Inhibition of alpha-glucosidase (unknown origin) relative to control. The following applies: concentration not given here.
Test [7] in a line: Inhibition of alpha-glucosidase (unknown origin). Further details: species or system Homo sapiens.
The target in test [8] is T1, Alpha-glucosidase. In words: Reversible non-competitive inhibition of Saccharomyces cerevisiae alpha-glucosidase using p-nitrophenyl-alpha-D-glucopyranoside as substrate assessed as inhibition constant preincubated for 10 mins followed by substrate addition and measured by absorbance based analysis. It is filed as protein assay.
Test [9] deals with T1, Alpha-glucosidase. In words: Inhibition of Saccharomyces cerevisiae alpha-glucosidase using p-nitrophenyl-alpha-D-glucopyranoside as substrate preincubated for 10 mins followed by substrate addition and measured by absorbance based analysis. It is filed as protein assay.
The target of test [10] is T1, Alpha-glucosidase. Nature of the test: Non-competitive inhibition of Saccharomyces cerevisiae alpha-glucosidase using p-nitrophenyl-alpha-D-glucopyranoside as substrate assessed as inhibition constant preincubated for 15 mins followed by substrate addition and measured after 30 mins by spectrophotometric analysis. It is filed as protein assay.
For test [11], the target named is T1, Alpha-glucosidase. Nature of the test: Inhibition of Saccharomyces cerevisiae alpha-glucosidase using p-nitrophenyl-alpha-D-glucopyranoside as substrate preincubated for 15 mins followed by substrate addition and measured after 30 mins by spectrophotometric analysis. Type of test: protein assay.
Test [12] concerns the target T1, Alpha-glucosidase. Nature of the test: Inhibition of Saccharomyces cerevisiae recombinant alpha-glucosidase using p-nitrophenyl-alpha-D-glucopyranoside as substrate preincubated for 15 mins followed by substrate addition and measured after 30 mins by microplate reader based analysis. It is filed as protein assay.
The target of test [13] is Alpha-glucosidase (Saccharomyces cerevisiae S288c) (UniProt P53341+P38158+P07265). Nature of the test: Potency index, ratio of acarbose IC50 to test compound IC50 for inhibition of Saccharomyces cerevisiae recombinant alpha-glucosidase using p-nitrophenyl-alpha-D-glucopyranoside as substrate preincubated for 15 mins followed by substrate addition and measured after 30 mins by microplate reader based analysis. Type of test: protein assay. The following applies: time 45.0 min.

Test [14] is described as follows: Inhibition of alpha-glucosidase (unknown origin) using p-nitrophenyl-alpha-D-glucopyranoside as substrate. More on the design: species or system Homo sapiens.
Test [15] is described as follows: Competitive inhibition of alpha-glucosidase (unknown origin) using p-nitrophenyl-alpha-D-glucopyranoside as substrate assessed as inhibition constant. More on the design: species or system Homo sapiens.
Test [16] deals with T1, Alpha-glucosidase. In words: Inhibition of Saccharomyces cerevisiae alpha-glucosidase using p-nitrophenyl-alpha-D-glucopyranoside as substrate preincubated for 15 mins followed by substrate addition and measured after 30 mins by multiplate reader analysis. It is filed as protein assay.
A short description of test [17]: Inhibition of alpha-glucosidase (unknown origin) using p-nitro phenyl glucopyranoside as substrate preincubated for 15 mins followed by substrate addition and measured after 30 mins by absorbance based analysis. More on the design: species or system Homo sapiens.

`CCCSc1nnc(C(C)c2ccc3cc(OC)ccc3c2)n1-c1ccc(Cl)c(Cl)c1` (stereo not drawn) yielded an IC50 at Alpha-glucosidase [1] of 1100 nM.
As to `NS(=O)(=O)c1ccc(Cc2nc(Cc3ccc(S(N)(=O)=O)cc3)nc(-c3cccc([N+](=O)[O-])c3)n2)cc1`, in test [2], the IC50 was 41700 nM. For the same compound, the Ki in [3] worked out at 41700 nM.
Consider `O=C1NC(c2ccc(O)cc2)Nc2ccccc21` (stereo not drawn), for which the IC50 against Alpha-glucosidase [4] is 1350 nM. For the same compound, at Alpha-glucosidase [5], the inhibition constant Ki came to 420 nM.
`CCCSc1nnc(C(C)c2ccc3cc(OC)ccc3c2)n1-c1ccc(F)cc1` (stereo not drawn): at Alpha-glucosidase [1], the IC50 was found to be 1000 nM.
On to `CCOC(=O)c1c(C)n(C2CC2)c2ccc(OCc3nnc(-c4ccc(O)cc4)[nH]3)cc12`, for which the IC50 in test [6] was determined as 30000 nM.
`COc1ccc(C2NC(=O)c3ccccc3N2)cc1` (stereo not drawn) registered an IC50 at Alpha-glucosidase [4] of 1150 nM. On Alpha-glucosidase [5], the Ki is 420 nM.
In the test listed under Homo sapiens, `Cc1ccc(NS(=O)(=O)c2ccc(-n3nnc4ccccc4c3=O)cc2)cc1C` showed an inhibition of 94.5%. The compound further gave an IC50 in test [7] of 29800 nM.
As for `C/C(=N\OC(=O)/C=C/c1ccc(Br)cc1)c1cc2ccc(Br)cc2oc1=O`, the Ki on Alpha-glucosidase [8] turned out to be 1500 nM. This compound had an IC50 against Alpha-glucosidase [9] of 2540 nM.
In [2], `Cc1cc(C)cc(CS(=O)(=O)c2ccc(NC(=O)Nc3cccc(Cl)c3)cc2)c1` had an IC50 of 9.05 nM. In [3], the inhibitory constant (Ki) is 12.8 nM.
For `O=C(COc1ccc2ccc(=O)oc2c1)N/N=C1\C(=O)N(Cc2ccccc2F)c2ccc(Cl)cc21`, at Alpha-glucosidase [10], the Ki was 2040 nM. Moreover, on Alpha-glucosidase [11], the IC50 worked out at 2560 nM.
Turning to `Cn1cc(-c2nnc(-c3ccc(C(c4cn(Cl)c5ccccc45)c4cn(Cl)c5ccccc45)cc3)o2)c2ccccc21`, the IC50 on Alpha-glucosidase [12] stood at 2000 nM. In [13], the Ratio IC50 stood at 400.
With `COc1ccc2oc(=O)c3c(CC#N)c(-c4ccccc4)[nH]c3c2c1`, 48600 nM corresponded to half-maximal inhibition in [14] (IC50). Moreover, the Ki in [15] turned out to be 42600 nM.
Compound `O=C(Cn1cc(Cn2c3ccccc3c3ccccc32)nn1)c1ccc(O)c(Br)c1` registered an IC50 against Alpha-glucosidase [16] of 1000 nM.
In [17], `CCOC(=O)CN1C(=O)S/C(=C/c2ccc(-n3ccc4c(Br)ccnc43)cc2)C1=O` came in with a 50% inhibitory concentration (IC50) of 550 nM.

In general, IC50 refers to the concentration that inhibits the measured activity by half. One may read the Ki as the dissociation constant of the complex between target and ligand, obtained from inhibition or displacement. A word on the inhibition: it is the relative decrease from the control value, in per cent. Read a high inhibition as a strong effect.
